IC50 data for 1 molecule are collected here from patent US20240336628A1, “NOVEL COMPOUNDS, COMPOSITIONS, AND THERAPEUTIC USES THEREOF” (Breakpoint Therapeutics GmbH, priority 2023, published 2024).

This assay has as its target T1, Polθ (truncated Polθ-Hel protein containing the helicase domain 67-894) (Homo sapiens, UniProt O75417).
T1 construct: a truncated Polθ protein (Polθ-Hel containing the helicase domain (67-894))
Put plainly: Polθ ATPase assay (Biological Assay 1, ADP-Glo luminescence). The class given is biochemical. Conditions: Table B (Part B compounds); same assay as Biological Assay 1. As to the method: The Polθ ATPase assay was used to evaluate inhibitors of Polθ ATPase activity, in vitro. Experiments were performed using a truncated Polθ protein (Polθ-Hel containing the helicase domain (67-894), ATP and a DNA single strand Oligo (5′-CTGTCCTGCATGATG-3′) in the Polθ assay buffer (20 mM Tis-HCl (pH 8.8), MgCl2 5 mM, tween20 0.01%, NP40 0.01%, BSA 0.01%, DTT 1 mM). 2 μL of assay buffer containing Pole-Hel protein (0.5 nM) and DNA substrate (500 nM) was transferred into assay ready plates, containing 0.04 μL of compounds diluted in DMSO. After a 30 minutes incubation at 23° C. in the dark, the reaction was triggered by adding 2 μL of ATP (60 μM), in assay buffer. After 60 minutes at 23° C., 4 μl of ADP-Glo™ Reagent (Glo 1) was added followed by 40 minutes of incubation, then 8 μl of ADP-Glom kinase Detection Reagent (Glo 2) followed by 60 minutes of incubation at 23° C. Luminescence was then measured using Tecan F200 infinite plate reader. Raw data were analysed using GeneData to generate IC50 values.
The Polθ ATPase assay described in Biological Assay 1 above was used to evaluate inhibitors of Polθ ATPase activity for the compounds described in the Experimental Part B above, in vitro.

The structures appear in SMILES notation.

T1 sequence (O75417 67-894): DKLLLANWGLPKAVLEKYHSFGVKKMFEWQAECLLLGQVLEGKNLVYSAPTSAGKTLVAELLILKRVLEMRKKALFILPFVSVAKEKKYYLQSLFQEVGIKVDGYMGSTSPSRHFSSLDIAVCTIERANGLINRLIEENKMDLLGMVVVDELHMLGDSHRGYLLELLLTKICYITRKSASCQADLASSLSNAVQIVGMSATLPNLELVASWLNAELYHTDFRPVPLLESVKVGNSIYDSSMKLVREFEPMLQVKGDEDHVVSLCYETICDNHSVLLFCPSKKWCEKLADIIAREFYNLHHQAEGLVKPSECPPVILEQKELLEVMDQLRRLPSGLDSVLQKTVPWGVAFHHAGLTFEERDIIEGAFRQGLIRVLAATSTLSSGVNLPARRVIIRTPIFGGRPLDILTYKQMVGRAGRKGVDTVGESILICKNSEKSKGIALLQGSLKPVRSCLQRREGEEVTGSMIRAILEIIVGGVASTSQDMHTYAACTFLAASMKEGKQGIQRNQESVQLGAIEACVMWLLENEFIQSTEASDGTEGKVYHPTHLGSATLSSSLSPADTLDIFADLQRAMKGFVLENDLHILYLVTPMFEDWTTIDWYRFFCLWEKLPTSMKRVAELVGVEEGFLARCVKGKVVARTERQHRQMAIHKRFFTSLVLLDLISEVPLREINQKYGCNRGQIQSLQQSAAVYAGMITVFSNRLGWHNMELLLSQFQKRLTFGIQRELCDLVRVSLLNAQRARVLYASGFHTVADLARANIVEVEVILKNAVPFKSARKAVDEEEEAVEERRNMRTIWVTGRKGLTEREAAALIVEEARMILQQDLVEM

The IC50 is the concentration needed to halve the response being measured. A low value points to higher potency. In the case of `COc1cnc(Cl)cc1-c1cn(C)c(=O)cc1C(=O)Nc1nc2cnc(N3CCC(O)CC3)nc2s1` [Example 125], the IC50 was < 100 nM.
